# Target: LRRK2 G2019S enzyme (Homo sapiens (Human), UniProt Q5S007, G2019S)
# Assay: LRRK2 G2019S TR-FRET biochemical kinase assay (LRRKtide substrate)
# Settings: Table A-2; 5 nM LRRK2, 134 μM ATP, 60 minute reaction, 23° C.
# Procedure: LRRK2 G2019S enzyme, Substrate (LRRKtide), ATP, TR-FRET dilution buffer, pLRRKtide antibody, 384-well assay plate, and DMSO.
# 50 mM Tris pH 7.5, 10 mM MgCl2, 1 mM EGTA, 0.01% Brij-35, 2 mM DTT, 5 nM LRRK2, 134 μM ATP, 60 minute reaction time, 23° C. reaction temperature, and 10 μL total reaction volume.
# 1×TR-FRET dilution buffer, 10 mM EDTA, 2 nM antibody, 23° C. reaction temperature, and 10 μL total reaction volume.
# Compound solutions were prepared by initially diluting to 1 mM with DMSO. 35 μL of reference compound solution, 35 μL of test compound solution, and 35 μL HPE were successively added to the source plate (384-well assay plate, Labcyte). The plates were centrifuged at 2500 rpm for 1 minute and sealed in foil. POD was used to perform a 3.162 fold serial dilution and 100 nL of reference compound solution, test compound solution, HPE and ZPE were transferred to assay plates. The assay plate was centrifuged at 2500 rpm for 1 minute, and sealed with foil.
# To perform the enzyme reaction, 5 μL of LRRKtide substrate and kinase mixture in assay buffer was added to all wells of the assay plate. The plate was centrifuged to concentrate the mixture at the bottom of the wells. The assay plate was incubated at 23° C. for 20 minutes. Following incubation, 5 μL of 2×ATP in assay buffer was added to each well, and plates were centrifuged to concentrate the mixture at the bottom of the wells. The plate was incubated at 23° C. for 60 minutes.
# To perform the detection of the reaction, EDTA completely mixed in TR-FRET dilution buffer was added to antibody reagent. 10 μL of detection reagent was added to all wells of each well of the assay-plate and the plate was centrifuged to concentrate the mixture at the bottom of the wells. The plate was then incubated at 23° C. for 60 minutes. Plates were read on Perkin Elmer Envision 2104 instrument in TR-FRET mode using a 340 nm excitation filter, 520 nm fluorescence emission filter, and 490 or 495 nm terbium emission filter.
# B-2, C2, and D-4 respectively.
# LRRK2 G2019S enzyme, sequence (Q5S007 whole entry G2019S): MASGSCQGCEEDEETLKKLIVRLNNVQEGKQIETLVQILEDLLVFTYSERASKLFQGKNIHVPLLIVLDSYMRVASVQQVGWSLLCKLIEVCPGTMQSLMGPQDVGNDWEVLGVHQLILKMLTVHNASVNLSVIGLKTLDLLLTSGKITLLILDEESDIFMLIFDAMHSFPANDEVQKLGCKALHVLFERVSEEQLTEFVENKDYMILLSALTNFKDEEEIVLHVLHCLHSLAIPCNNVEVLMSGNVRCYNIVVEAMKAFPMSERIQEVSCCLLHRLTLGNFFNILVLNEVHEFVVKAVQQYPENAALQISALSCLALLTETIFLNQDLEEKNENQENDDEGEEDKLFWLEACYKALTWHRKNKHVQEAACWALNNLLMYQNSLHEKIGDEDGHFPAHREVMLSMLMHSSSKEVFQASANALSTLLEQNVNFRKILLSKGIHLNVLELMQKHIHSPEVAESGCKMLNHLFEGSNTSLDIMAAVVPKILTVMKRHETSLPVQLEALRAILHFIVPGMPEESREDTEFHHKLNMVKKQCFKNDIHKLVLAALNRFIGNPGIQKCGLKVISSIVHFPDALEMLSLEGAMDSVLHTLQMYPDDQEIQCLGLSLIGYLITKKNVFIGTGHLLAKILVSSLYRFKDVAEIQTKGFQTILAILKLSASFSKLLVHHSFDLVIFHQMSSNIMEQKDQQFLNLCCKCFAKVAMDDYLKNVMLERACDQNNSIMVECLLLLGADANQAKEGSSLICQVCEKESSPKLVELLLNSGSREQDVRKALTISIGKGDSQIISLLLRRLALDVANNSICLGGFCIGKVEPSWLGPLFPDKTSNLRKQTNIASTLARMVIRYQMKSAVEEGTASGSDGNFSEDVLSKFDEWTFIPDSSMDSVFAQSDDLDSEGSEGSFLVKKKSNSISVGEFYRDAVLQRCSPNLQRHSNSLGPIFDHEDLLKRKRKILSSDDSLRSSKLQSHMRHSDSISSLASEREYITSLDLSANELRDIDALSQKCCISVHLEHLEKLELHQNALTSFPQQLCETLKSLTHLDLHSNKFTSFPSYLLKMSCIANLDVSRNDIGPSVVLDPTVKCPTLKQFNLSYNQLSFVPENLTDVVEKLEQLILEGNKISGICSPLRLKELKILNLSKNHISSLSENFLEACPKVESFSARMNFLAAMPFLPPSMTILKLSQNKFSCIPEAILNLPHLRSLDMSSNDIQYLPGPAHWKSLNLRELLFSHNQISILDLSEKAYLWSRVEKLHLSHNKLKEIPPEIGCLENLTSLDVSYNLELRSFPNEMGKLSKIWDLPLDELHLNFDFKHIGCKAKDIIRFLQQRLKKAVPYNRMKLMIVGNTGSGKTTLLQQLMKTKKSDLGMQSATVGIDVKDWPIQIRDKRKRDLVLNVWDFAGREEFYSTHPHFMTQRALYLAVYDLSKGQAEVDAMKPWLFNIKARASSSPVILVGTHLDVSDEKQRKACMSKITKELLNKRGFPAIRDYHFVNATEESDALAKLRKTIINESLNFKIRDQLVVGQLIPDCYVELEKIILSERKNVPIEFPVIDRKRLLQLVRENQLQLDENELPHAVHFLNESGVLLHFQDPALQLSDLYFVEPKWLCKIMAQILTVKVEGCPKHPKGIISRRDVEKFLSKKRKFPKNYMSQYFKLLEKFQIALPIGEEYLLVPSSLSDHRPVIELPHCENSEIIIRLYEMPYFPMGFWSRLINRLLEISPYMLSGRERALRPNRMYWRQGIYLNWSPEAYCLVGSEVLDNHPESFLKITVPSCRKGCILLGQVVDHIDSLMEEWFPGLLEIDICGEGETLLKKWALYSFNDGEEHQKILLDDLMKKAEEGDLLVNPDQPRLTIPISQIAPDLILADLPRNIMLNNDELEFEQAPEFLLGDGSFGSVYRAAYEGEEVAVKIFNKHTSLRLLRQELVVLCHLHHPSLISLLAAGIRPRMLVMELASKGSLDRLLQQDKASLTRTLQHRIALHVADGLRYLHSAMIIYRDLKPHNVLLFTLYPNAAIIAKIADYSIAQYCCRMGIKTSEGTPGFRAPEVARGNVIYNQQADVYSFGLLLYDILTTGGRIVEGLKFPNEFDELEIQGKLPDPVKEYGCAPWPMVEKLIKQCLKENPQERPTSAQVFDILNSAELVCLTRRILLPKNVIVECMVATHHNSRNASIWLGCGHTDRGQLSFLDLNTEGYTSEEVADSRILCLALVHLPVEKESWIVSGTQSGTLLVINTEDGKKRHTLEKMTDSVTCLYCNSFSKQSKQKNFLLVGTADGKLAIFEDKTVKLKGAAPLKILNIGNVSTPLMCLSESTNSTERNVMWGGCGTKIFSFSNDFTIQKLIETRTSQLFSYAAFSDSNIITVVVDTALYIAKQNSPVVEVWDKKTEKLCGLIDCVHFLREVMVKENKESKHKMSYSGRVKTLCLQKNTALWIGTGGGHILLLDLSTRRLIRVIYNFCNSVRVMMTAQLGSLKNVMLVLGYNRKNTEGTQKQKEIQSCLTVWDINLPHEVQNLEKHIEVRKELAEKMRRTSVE
row,IC50,Structure (SMILES)
1,30 to 60 nM,"Cc1nn(C(C)(C)C#N)cc1Nc1ncc(C(F)(F)F)c(-c2cnn(C)c2)n1 [Compound A-9, 2-methyl-2-(3-methyl-4-((4-(1-methyl-1H-pyrazol-4-yl)-5-(trifluoromethyl)pyrimidin-2-yl)amino)-1H-pyrazol-1-yl)propanenitrile]"
2,> 60 nM,"Cc1nn(C(C)(C)C#N)cc1Nc1ncc(C(F)(F)F)c(C2CCCC2)n1 [Compound A-10, 2-[4-[[4-cyclopentyl-5-(trifluoromethyl)pyrimidin-2-yl]amino]-3-methyl-pyrazol-1-yl]-2-methyl-propanenitrile]"
3,30 to 60 nM,"Cc1nn(C(C)(C)C#N)cc1Nc1ncc(C(F)(F)F)c(C2CCC2)n1 [Compound A-11, 2-[4-[[4-cyclobutyl-5-(trifluoromethyl)pyrimidin-2-yl]amino]-3-methyl-pyrazol-1-yl]-2-methyl-propanenitrile]"
4,< 30 nM,"Cc1nn(C2COC2)cc1Nc1ncc(C(F)(F)F)c(C2CC2)n1 [Compound A-14, 4-cyclopropyl-N-[3-methyl-1-(oxetan-3-yl)pyrazol-4-yl]-5-(trifluoromethyl)pyrimidin-2-amine]"
5,< 30 nM,"Cc1c(Nc2ncc(C(F)(F)F)c(C3CC3)n2)cnn1C1COC1 [Compound A-15, 4-cyclopropyl-N-[5-methyl-1-(oxetan-3-yl)pyrazol-4-yl]-5-(trifluoromethyl)pyrimidin-2-amine]"
6,< 30 nM,"[2H]C([2H])([2H])n1cnc(C(C)(C)n2cc(Nc3ncc(C(F)(F)F)c(C4CC4)n3)c(C)n2)n1 [Compound A-16, 4-cyclopropyl-N-[3-methyl-1-[1-methyl-1-[1-(trideuteriomethyl)-1,2,4-triazol-3-yl]ethyl]pyrazol-4-yl]-5-(trifluoromethyl)pyrimidin-2-amine]"
7,30 to 60 nM,"CC(C)(C#N)n1cc(Nc2ncc(C(F)(F)F)c(C3CC3)n2)c(Cl)n1 [Compound A-17, 2-(3-chloro-4-((4-cyclopropyl-5-(trifluoromethyl)pyrimidin-2-yl)amino)-1H-pyrazol-1-yl)-2-methylpropanenitrile]"
8,30 to 60 nM,"Cc1c(Nc2ncc(C(F)(F)F)c(C3CC3)n2)cnn1CC(C)(C)O [Compound A-18, 1-[4-[[4-cyclopropyl-5-(trifluoromethyl)pyrimidin-2-yl]amino]-5-methyl-pyrazol-1-yl]-2-methyl-propan-2-ol]"
9,30 to 60 nM,"Cc1nn(CC(C)(C)O)cc1Nc1ncc(C(F)(F)F)c(C2CC2)n1 [Compound A-19, 1-[4-[[4-cyclopropyl-5-(trifluoromethyl)pyrimidin-2-yl]amino]-3-methyl-pyrazol-1-yl]-2-methyl-propan-2-ol]"
10,< 30 nM,"CC(=O)N1CCC(n2ncc(Nc3ncc(C(F)(F)F)c(C4CC4)n3)c2C)CC1 [Compound A-20, 1-[4-[4-[[4-cyclopropyl-5-(trifluoromethyl)pyrimidin-2-yl]amino]-5-methyl-pyrazol-1-yl]-1-piperidyl]ethanone]"
11,30 to 60 nM,"CC(=O)N1CCC(n2cc(Nc3ncc(C(F)(F)F)c(C4CC4)n3)c(C)n2)CC1 [Compound A-21, 1-[4-[4-[[4-cyclopropyl-5-(trifluoromethyl)pyrimidin-2-yl]amino]-3-methyl-pyrazol-1-yl]-1-piperidyl]ethanone]"
12,> 60 nM,"Cc1nn(C(C)(C)c2ccnn2C)cc1Nc1ncc(C(F)(F)F)c(C2CC2)n1 [Compound A-22, 4-cyclopropyl-N-(3-methyl-1-(2-(1-methyl-1H-pyrazol-5-yl)propan-2-yl)-1H-pyrazol-4-yl)-5-(trifluoromethyl)pyrimidin-2-amine]"
13,< 30 nM,"Cc1nn(C(C)(C)c2ccn(C)n2)cc1Nc1ncc(C(F)(F)F)c(C2CC2)n1 [Compound A-23, 4-cyclopropyl-N-(3-methyl-1-(2-(1-methyl-1H-pyrazol-3-yl)propan-2-yl)-1H-pyrazol-4-yl)-5-(trifluoromethyl)pyrimidin-2-amine]"
14,< 30 nM,"Cc1c(Nc2ncc(C(F)(F)F)c(C3CC3)n2)cnn1C1CCOCC1 [Compound A-24, 4-cyclopropyl-N-(5-methyl-1-tetrahydropyran-4-yl-pyrazol-4-yl)-5-(trifluoromethyl)pyrimidin-2-amine]"
15,30 to 60 nM,"Cc1nn(C2CCOCC2)cc1Nc1ncc(C(F)(F)F)c(C2CC2)n1 [Compound A-25, 4-cyclopropyl-N-(3-methyl-1-tetrahydropyran-4-yl-pyrazol-4-yl)-5-(trifluoromethyl)pyrimidin-2-amine]"
16,< 30 nM,"Cc1c(Nc2ncc(C(F)(F)F)c(C3CC3)n2)cnn1C1CCC(=O)N(C)C1 (stereo not shown) [Compound A-26, 5-(4-((4-cyclopropyl-5-(trifluoromethyl)pyrimidin-2-yl)amino)-5-methyl-1H-pyrazol-1-yl)-1-methylpiperidin-2-one]"
17,> 60 nM,"Cc1nn(C2CCC(=O)N(C)C2)cc1Nc1ncc(C(F)(F)F)c(C2CC2)n1 (stereo not shown) [Compound A-27, 5-(4-((4-cyclopropyl-5-(trifluoromethyl)pyrimidin-2-yl)amino)-3-methyl-1H-pyrazol-1-yl)-1-methylpiperidin-2-one]"
18,< 30 nM,"Cc1c(Nc2ncc(C(F)(F)F)c(C3CC3)n2)cnn1C(CF)CF [Compound A-28, 4-cyclopropyl-N-[1-[2-fluoro-1-(fluoromethyl)ethyl]-5-methyl-pyrazol-4-yl]-5-(trifluoromethyl)pyrimidin-2-amine]"
19,< 30 nM,"Cc1nn(C(CF)CF)cc1Nc1ncc(C(F)(F)F)c(C2CC2)n1 [Compound A-29, 4-cyclopropyl-N-[1-[2-fluoro-1-(fluoromethyl)ethyl]-3-methyl-pyrazol-4-yl]-5-(trifluoromethyl)pyrimidin-2-amine]"
20,< 30 nM,"Cc1c(Nc2ncc(C(F)(F)F)c(C3CC3)n2)cnn1CCF [Compound A-30, 4-cyclopropyl-N-(1-(2-fluoroethyl)-5-methyl-1H-pyrazol-4-yl)-5-(trifluoromethyl)pyrimidin-2-amine]"
21,< 30 nM,"Cc1nn(CCF)cc1Nc1ncc(C(F)(F)F)c(C2CC2)n1 [Compound A-31, 4-cyclopropyl-N-(1-(2-fluoroethyl)-3-methyl-1H-pyrazol-4-yl)-5-(trifluoromethyl)pyrimidin-2-amine]"
22,> 60 nM,"Cc1nn(C(C)(C)C#N)cc1Nc1ncc(Cl)c(C2CCC2)n1 [Compound A-32, 2-(4-((5-chloro-4-cyclobutylpyrimidin-2-yl)amino)-3-methyl-1H-pyrazol-1-yl)-2-methylpropanenitrile]"
23,> 60 nM,"Cc1nn(C(C)(C)c2ccnn2C)cc1Nc1ncc(Cl)c(C2CC2)n1 [Compound A-33, 5-chloro-4-cyclopropyl-N-(3-methyl-1-(2-(1-methyl-1H-pyrazol-5-yl)propan-2-yl)-1H-pyrazol-4-yl)pyrimidin-2-amine]"
24,< 30 nM,"Cc1nn(C(C)(C)c2ccn(C)n2)cc1Nc1ncc(Cl)c(C2CC2)n1 [Compound A-34, 5-chloro-4-cyclopropyl-N-(3-methyl-1-(2-(1-methyl-1H-pyrazol-3-yl)propan-2-yl)-1H-pyrazol-4-yl)pyrimidin-2-amine]"
25,< 30 nM,"Cc1nn(C(C)(C)c2ncn(C)n2)cc1Nc1ncc(Cl)c(C2CC2)n1 [Compound A-35, 5-chloro-4-cyclopropyl-N-(3-methyl-1-(2-(1-methyl-1H-1,2,4-triazol-3-yl)propan-2-yl)-1H-pyrazol-4-yl)pyrimidin-2-amine]"

# Source: patent US11214565B2, “Compound, compositions, and methods” (Denali Therapeutics Inc., priority 2015, dated 2022)
